From patent US10669284B2, “Fused thiazolopyrimidine derivatives as MNKS inhibitors” (LIFEARC, priority 2015, dated 2020)

Key:
BTK = BTK (Homo sapiens, UniProt Q06187); assay: Kinase selectivity screen BTK; details: read-out: % inhibition of BTK
INSRR = INSRR (Homo sapiens, UniProt P14616); assay: Kinase selectivity screen INSRR; details: read-out: % inhibition of INSRR
RPS6KA1 = RPS6KA1 (Homo sapiens, UniProt Q15418); assay: Kinase selectivity screen RPS6KA1; details: read-out: % inhibition of RPS6KA1
PIP5K1C = PIP5K1C (Homo sapiens, UniProt O60331); assay: Kinase selectivity screen PIP5K1C; details: read-out: % inhibition of PIP5K1C
DYRK2 = molecular target: T1, DYRK2 (Homo sapiens, UniProt Q92630); assay: Kinase selectivity screen DYRK2; details: read-out: % inhibition of DYRK2
T1 sequence (Q92630 1-601): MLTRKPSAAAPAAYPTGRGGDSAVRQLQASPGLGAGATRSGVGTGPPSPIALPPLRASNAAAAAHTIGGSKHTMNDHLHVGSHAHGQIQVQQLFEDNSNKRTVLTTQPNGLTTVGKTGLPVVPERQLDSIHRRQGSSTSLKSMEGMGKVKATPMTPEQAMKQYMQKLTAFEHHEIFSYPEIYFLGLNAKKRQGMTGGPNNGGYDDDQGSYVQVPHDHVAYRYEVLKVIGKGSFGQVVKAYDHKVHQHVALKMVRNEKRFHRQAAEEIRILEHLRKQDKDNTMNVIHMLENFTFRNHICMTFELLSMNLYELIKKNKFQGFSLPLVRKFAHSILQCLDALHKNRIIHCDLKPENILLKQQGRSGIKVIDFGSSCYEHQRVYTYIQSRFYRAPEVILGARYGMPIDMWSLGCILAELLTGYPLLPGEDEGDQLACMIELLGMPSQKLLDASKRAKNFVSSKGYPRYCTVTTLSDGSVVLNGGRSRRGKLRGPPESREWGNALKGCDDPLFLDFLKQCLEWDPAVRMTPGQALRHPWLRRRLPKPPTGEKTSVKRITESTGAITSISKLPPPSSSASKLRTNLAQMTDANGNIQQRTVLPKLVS

STK11 = molecular target: T2, STK11 (Homo sapiens, UniProt Q15831); assay: Kinase selectivity screen STK11; details: read-out: % inhibition of STK11
T2 sequence (Q15831 1-433): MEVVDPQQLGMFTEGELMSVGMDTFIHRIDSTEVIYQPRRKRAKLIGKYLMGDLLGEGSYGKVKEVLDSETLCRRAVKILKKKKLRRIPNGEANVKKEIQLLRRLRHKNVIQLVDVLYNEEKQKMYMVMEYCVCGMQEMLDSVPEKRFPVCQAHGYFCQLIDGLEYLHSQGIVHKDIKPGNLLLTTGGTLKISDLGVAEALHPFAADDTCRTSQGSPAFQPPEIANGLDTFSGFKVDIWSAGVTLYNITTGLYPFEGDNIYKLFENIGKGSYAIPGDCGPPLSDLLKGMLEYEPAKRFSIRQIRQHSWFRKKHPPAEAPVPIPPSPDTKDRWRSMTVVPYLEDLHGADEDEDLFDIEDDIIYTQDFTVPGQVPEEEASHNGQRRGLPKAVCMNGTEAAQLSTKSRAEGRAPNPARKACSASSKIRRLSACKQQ
T2 sequence (Q7RTN6 1-431 partner): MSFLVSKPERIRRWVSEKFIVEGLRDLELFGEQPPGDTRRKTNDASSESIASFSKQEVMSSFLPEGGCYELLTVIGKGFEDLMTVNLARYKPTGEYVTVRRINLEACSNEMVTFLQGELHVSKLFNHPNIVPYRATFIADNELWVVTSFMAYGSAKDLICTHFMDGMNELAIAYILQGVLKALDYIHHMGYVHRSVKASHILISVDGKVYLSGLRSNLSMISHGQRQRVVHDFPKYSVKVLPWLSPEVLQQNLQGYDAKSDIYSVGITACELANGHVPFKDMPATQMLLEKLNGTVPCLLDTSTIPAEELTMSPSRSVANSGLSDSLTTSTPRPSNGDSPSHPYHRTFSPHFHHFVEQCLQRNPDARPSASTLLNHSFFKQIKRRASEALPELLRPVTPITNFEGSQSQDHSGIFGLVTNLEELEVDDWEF
T2 sequence (Q9Y376 1-341 partner): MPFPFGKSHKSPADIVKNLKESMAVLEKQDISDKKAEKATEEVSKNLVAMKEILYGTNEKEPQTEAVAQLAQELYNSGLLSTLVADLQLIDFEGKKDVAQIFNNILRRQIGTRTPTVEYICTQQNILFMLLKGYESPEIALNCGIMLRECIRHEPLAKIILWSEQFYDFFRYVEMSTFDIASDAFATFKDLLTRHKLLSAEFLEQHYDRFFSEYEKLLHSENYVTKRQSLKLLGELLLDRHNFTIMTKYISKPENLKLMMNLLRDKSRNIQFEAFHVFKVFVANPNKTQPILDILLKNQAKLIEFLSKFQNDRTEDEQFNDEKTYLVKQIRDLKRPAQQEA

EGFR = EGFR (Homo sapiens, UniProt P00533); assay: Kinase selectivity screen EGFR; details: read-out: % inhibition of EGFR
PRKCA = PRKCA (Homo sapiens, UniProt P17252); assay: Kinase selectivity screen PRKCA; details: read-out: % inhibition of PRKCA
FER = FER (Homo sapiens, UniProt P16591); assay: Kinase selectivity screen FER; details: read-out: % inhibition of FER
NTRK1 = NTRK1 (Homo sapiens, UniProt P04629); assay: Kinase selectivity screen NTRK1; details: read-out: % inhibition of NTRK1
CDK1/CCNB1 = CDK1/CCNB1 (Homo sapiens, UniProt P06493); assay: Kinase selectivity screen CDK1/CCNB1; details: read-out: % inhibition of CDK1/CCNB1
PAK4 = PAK4 (Homo sapiens, UniProt O96013); assay: Kinase selectivity screen PAK4; details: read-out: % inhibition of PAK4
MAPK8 = MAPK8 (Homo sapiens, UniProt P45983); assay: Kinase selectivity screen MAPK8; details: read-out: % inhibition of MAPK8
RPS6KB1 = RPS6KB1 (Homo sapiens, UniProt P23443); assay: Kinase selectivity screen RPS6KB1; details: read-out: % inhibition of RPS6KB1
RPS6KB1, sequence (P23443 whole entry, species assumed): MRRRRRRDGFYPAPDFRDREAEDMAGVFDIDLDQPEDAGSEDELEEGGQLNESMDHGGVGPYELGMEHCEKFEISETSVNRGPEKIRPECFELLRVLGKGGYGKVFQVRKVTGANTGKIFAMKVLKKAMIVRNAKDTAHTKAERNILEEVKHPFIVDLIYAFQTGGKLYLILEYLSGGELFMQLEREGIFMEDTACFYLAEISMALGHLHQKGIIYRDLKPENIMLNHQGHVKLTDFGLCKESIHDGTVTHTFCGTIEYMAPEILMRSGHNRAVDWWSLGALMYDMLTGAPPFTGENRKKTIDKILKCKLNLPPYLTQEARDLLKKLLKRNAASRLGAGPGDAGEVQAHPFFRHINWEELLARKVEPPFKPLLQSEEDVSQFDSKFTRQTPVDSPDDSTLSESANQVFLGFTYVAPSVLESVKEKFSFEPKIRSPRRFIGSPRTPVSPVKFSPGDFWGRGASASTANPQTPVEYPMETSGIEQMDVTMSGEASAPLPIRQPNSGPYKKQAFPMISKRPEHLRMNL

BTK, sequence (Q06187 whole entry, species assumed): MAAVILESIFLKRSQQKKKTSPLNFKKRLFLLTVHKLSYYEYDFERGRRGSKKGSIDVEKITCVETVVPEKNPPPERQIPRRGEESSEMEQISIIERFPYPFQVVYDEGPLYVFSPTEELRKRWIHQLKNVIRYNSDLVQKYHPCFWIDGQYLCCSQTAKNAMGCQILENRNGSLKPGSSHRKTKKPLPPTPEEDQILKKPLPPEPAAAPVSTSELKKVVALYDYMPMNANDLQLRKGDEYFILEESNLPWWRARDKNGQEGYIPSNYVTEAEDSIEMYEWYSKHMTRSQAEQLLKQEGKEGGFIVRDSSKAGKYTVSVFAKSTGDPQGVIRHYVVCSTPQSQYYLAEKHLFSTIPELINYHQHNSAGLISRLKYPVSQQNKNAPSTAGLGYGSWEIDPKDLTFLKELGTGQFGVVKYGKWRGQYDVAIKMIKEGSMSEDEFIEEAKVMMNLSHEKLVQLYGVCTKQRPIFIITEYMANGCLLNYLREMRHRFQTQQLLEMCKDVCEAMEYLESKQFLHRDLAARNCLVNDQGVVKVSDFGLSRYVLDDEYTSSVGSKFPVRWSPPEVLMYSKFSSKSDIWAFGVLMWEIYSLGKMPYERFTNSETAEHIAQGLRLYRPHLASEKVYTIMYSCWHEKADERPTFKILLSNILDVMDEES
CDK1/CCNB1, sequence (P06493 whole entry, species assumed): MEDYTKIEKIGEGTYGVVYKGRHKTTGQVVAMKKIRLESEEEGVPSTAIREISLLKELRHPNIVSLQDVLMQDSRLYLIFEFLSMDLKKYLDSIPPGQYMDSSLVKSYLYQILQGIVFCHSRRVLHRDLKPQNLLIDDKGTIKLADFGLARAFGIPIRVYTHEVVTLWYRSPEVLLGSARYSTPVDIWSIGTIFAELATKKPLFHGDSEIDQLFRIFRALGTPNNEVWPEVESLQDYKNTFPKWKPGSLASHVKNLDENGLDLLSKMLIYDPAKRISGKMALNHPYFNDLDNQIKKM
CDK1/CCNB1, sequence (P14635 whole entry partner, species assumed): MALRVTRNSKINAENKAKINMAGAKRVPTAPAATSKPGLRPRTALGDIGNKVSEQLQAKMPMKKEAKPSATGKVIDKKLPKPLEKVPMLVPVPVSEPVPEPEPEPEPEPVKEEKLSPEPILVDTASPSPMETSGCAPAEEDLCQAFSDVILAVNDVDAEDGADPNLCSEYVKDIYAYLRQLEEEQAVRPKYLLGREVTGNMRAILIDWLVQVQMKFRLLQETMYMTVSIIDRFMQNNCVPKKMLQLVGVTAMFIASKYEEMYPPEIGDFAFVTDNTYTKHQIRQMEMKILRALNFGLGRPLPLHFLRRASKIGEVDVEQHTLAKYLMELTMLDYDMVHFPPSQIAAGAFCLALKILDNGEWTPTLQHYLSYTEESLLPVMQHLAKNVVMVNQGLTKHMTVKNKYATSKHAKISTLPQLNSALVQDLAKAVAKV
RPS6KA1, sequence (Q15418 whole entry, species assumed): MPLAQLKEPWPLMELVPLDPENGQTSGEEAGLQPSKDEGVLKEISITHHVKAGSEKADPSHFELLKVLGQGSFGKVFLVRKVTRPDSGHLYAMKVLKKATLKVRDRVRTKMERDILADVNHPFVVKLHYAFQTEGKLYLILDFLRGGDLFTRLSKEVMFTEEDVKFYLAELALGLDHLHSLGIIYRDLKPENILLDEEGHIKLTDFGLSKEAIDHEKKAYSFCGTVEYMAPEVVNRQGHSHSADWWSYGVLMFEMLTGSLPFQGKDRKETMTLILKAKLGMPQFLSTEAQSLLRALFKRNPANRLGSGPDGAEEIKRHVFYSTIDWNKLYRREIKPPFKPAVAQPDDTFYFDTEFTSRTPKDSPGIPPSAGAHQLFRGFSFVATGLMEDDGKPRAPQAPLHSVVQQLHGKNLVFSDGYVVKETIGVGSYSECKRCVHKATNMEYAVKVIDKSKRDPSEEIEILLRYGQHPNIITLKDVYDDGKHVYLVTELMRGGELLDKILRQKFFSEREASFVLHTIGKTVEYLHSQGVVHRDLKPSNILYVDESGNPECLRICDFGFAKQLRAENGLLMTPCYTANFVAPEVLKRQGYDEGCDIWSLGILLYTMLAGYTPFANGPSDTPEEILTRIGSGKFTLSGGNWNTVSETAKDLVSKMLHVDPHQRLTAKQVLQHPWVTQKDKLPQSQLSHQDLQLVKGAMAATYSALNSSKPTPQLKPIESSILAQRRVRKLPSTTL
PAK4, sequence (O96013 whole entry, species assumed): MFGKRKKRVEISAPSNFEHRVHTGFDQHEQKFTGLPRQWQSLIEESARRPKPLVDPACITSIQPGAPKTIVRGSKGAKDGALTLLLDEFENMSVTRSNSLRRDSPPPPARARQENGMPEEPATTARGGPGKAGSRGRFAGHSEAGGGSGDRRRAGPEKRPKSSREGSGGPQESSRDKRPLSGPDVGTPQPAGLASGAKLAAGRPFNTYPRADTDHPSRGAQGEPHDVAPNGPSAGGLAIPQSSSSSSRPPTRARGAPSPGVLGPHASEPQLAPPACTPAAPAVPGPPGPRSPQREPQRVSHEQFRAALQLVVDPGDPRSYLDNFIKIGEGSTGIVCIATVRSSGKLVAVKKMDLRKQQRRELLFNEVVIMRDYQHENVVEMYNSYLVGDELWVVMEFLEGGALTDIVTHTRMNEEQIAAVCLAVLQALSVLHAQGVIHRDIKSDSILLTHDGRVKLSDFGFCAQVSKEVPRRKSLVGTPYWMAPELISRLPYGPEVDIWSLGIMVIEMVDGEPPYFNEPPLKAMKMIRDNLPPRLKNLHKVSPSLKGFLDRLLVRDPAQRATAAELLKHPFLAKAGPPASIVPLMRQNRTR
PIP5K1C, sequence (O60331 whole entry, species assumed): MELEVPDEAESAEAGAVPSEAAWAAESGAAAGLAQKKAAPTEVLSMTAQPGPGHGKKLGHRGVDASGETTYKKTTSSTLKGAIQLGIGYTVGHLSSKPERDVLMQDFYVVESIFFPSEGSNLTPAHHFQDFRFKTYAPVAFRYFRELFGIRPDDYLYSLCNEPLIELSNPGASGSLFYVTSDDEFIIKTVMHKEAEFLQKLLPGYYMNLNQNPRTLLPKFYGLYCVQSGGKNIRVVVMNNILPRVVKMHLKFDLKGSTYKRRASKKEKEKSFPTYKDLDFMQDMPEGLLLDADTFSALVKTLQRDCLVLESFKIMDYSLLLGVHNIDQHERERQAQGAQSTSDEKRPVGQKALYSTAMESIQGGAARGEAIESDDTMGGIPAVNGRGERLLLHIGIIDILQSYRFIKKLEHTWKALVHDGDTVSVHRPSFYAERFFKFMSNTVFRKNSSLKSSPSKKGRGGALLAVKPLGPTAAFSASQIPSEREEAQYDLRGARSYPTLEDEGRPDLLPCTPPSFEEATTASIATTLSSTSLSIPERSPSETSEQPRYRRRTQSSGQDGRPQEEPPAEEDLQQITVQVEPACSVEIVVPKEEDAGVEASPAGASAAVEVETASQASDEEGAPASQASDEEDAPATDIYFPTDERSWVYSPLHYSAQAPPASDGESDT
MAPK8, sequence (P45983 whole entry, species assumed): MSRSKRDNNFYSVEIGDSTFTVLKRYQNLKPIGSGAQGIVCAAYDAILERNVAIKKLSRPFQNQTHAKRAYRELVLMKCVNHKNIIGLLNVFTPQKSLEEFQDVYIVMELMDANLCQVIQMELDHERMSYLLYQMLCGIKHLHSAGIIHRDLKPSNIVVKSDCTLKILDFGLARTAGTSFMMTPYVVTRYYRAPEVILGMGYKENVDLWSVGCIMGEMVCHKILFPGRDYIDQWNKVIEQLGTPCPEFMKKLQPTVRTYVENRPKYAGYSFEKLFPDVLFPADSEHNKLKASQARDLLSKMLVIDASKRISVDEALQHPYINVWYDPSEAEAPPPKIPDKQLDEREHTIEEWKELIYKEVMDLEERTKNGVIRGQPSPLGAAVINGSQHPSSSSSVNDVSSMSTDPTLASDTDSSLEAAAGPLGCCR

SMILES | inhibition at 1 µM (BTK) [%] | inhibition at 1 µM (INSRR) [%] | inhibition at 1 µM (RPS6KA1) [%] | inhibition at 1 µM (PIP5K1C) [%] | inhibition at 1 µM (DYRK2) [%] | inhibition at 1 µM (STK11) [%] | inhibition at 1 µM (EGFR) [%] | inhibition at 1 µM (PRKCA) [%] | inhibition at 1 µM (FER) [%] | inhibition at 1 µM (NTRK1) [%] | inhibition at 1 µM (CDK1/CCNB1) [%] | inhibition at 1 µM (PAK4) [%] | inhibition at 1 µM (MAPK8) [%] | inhibition at 1 µM (RPS6KB1) [%]
CC(C)Oc1cc(F)ccc1Nc1ncnc2sc(C(=O)NCC3CCNCC3)nc12 [Example 10, 7-(4-fluoro-2-isopropoxy-anilino)-N-(4-piperidylmethyl)thiazolo[5,4-d]pyrimidine-2-carboxamide] | 6 | 10 | 30 | 6 | 7 | 21 | 0 | 8 | 4 | 10 | 8 | 15 | 5 | 0
CN(C)CCCNC(=O)c1nc2c(N3CCc4cc(F)ccc43)ncnc2s1 [Example 64, N-[3-(dimethylamino)propyl]-7-(5-fluoroindolin-1-yl)thiazolo[5,4-d]pyrimidine-2-carboxamide] | 0 | 0 | 49 | 3 | 44 | 10 | 5 | 0 | 0 | 5 | 4 | 4 | 0 | 0
O=C(NCC1CCNCC1)c1nc2c(N3CCc4cc(F)ccc43)ncnc2s1 [Example 58, 7-(5-fluoroindolin-1-yl)-N-(4-piperidylmethyl)thiazolo[5,4-d]pyrimidine-2-carboxamide] | 9 | 13 | 36 | 6 | 21 | 7 | 0 | 0 | 0 | 0 | 0 | 0 | 1 | 0
